Nine compounds from PubChem BioAssay AID192 (DTP/NCI, 2004) can be followed below.

The subject of the test is BDF1 mice, B16 melanoma ip, median survival T/C. The test can be described thus: NCI In Vivo Anticancer Drug Screen. Data for tumor model B16 Melanoma (intraperitoneal) in B6D2F1 (BDF1) mice. Conditions: endpoint: median survival time, higher = longer survival. In short, it runs like this:
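Antitumor activity is assessed in mice bearing a transplanted tumor, with survival or tumor size compared against vehicle-dosed controls and expressed as T/C.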

“And” between values parts separate entries of the source, which are not always exact repeats. Equal values may be shown once. Toxic doses and inconclusive results are not listed.

As to `COc1cccc2c1C(=O)c1c(O)c3c(c(O)c1C2=O)C[C@@](O)(C(C)=O)C[C@@H]3OC1CC(N)C(O)C(C)O1` (stereo not given in full), the T/C (dose: 0.06 mg/kg/injection, schedule: Q01DX017 (ip), vehicle: clinical formulation) is 184 % of control; the T/C (dose: 0.06 mg/kg/injection, schedule: Q05DX010 (ip), vehicle: clinical formulation) is 160 % of control; the T/C (dose: 0.12 mg/kg/injection, schedule: Q01DX009 (ip), vehicle: clinical formulation) was 168 % of control; the T/C (dose: 0.12 mg/kg/injection, schedule: Q01DX017 (ip), vehicle: clinical formulation) was 178 % of control; the T/C (dose: 0.12 mg/kg/injection, schedule: Q05DX010 (ip), vehicle: clinical formulation) was 165 % of control; the T/C (dose: 0.13 mg/kg/injection, schedule: Q01DX009 (ip), vehicle: water) was 189 % of control. For the same compound, the T/C is 170 % of control (dose: 0.2 mg/kg/injection, schedule: Q01DX009 (ip), vehicle: saline); 192 % of control (dose: 0.25 mg/kg/injection, schedule: Q01DX009 (ip), vehicle: clinical formulation); 226 % of control (dose: 0.25 mg/kg/injection, schedule: Q01DX017 (ip), vehicle: clinical formulation); 152 % of control (dose: 0.25 mg/kg/injection, schedule: Q03HX008 (ip), vehicle: saline); 162 % of control (dose: 0.25 mg/kg/injection, schedule: Q04DX003 (ip), vehicle: clinical formulation); 165 % of control (dose: 0.25 mg/kg/injection, schedule: Q04DX005 (ip), vehicle: clinical formulation). Moreover, the T/C is, setting by setting: (dose: 0.25 mg/kg/injection, schedule: Q05DX010 (ip), vehicle: clinical formulation) 237 % of control; (dose: 0.39 mg/kg/injection, schedule: Q01DX009 (ip), vehicle: saline) 212 % of control; (dose: 0.5 mg/kg/injection, schedule: Q01DX009 (ip), vehicle: clinical formulation) 292 % of control; (dose: 0.5 mg/kg/injection, schedule: Q01DX017 (ip), vehicle: clinical formulation) 315 % of control; (dose: 0.5 mg/kg/injection, schedule: Q04DX005 (ip), vehicle: clinical formulation) 215 % of control; (dose: 0.5 mg/kg/injection, schedule: Q05DX010 (ip), vehicle: clinical formulation) 235 % of control. The T/C was 100 % of control (dose: 0.5 mg/kg/injection, schedule: Q11DX018 (sc), vehicle: water); 238 % of control (dose: 0.78 mg/kg/injection, schedule: Q01DX009 (ip), vehicle: saline); 223 % of control (dose: 1.0 mg/kg/injection, schedule: Q01DX001 (ip), vehicle: clinical formulation); 204 % of control (dose: 1.0 mg/kg/injection, schedule: Q01DX009 (ip), vehicle: clinical formulation); 213 % of control (dose: 1.0 mg/kg/injection, schedule: Q01DX017 (ip), vehicle: clinical formulation); 217 % of control (dose: 1.0 mg/kg/injection, schedule: Q04DX003 (ip), vehicle: clinical formulation). The T/C is, setting by setting: (dose: 1.0 mg/kg/injection, schedule: Q04DX005 (ip), vehicle: clinical formulation) 194 % of control; (dose: 1.0 mg/kg/injection, schedule: Q05DX010 (ip), vehicle: clinical formulation) 200 % of control; (dose: 1.0 mg/kg/injection, schedule: Q11DX018 (sc), vehicle: water) 111 % of control; (dose: 1.5 mg/kg/injection, schedule: Q01DX001 (ip), vehicle: water) 287 % of control; (dose: 1.56 mg/kg/injection, schedule: Q01DX009 (ip), vehicle: saline) 150 % of control; (dose: 2.0 mg/kg/injection, schedule: Q01DX001 (ip), vehicle: clinical formulation) 204 % of control. Besides, the T/C (dose: 2.0 mg/kg/injection, schedule: Q01DX009 (ip), vehicle: clinical formulation) was 187 % of control; the T/C (dose: 2.0 mg/kg/injection, schedule: Q04DX003 (ip), vehicle: clinical formulation) was 215 % of control; the T/C (dose: 2.0 mg/kg/injection, schedule: Q04DX005 (ip), vehicle: clinical formulation) was 160 % of control; the T/C (dose: 2.0 mg/kg/injection, schedule: Q05DX010 (ip), vehicle: clinical formulation) is 110 % of control; the T/C (dose: 3.0 mg/kg/injection, schedule: Q01DX001 (ip), vehicle: water) is 287 % of control; the T/C (dose: 4.0 mg/kg/injection, schedule: Q01DX001 (ip), vehicle: clinical formulation) was 285 % of control. Moreover, the T/C is 94 % of control and 103 % of control (dose: 6.0 mg/kg/injection, schedule: Q01DX001 (ip), vehicle: water); 107 % of control and 122 % of control (dose: 7.5 mg/kg/injection, schedule: Q01DX001 (ip), vehicle: water); 110 % of control (dose: 10.0 mg/kg/injection, schedule: Q01DX001 (ip), vehicle: water).

With `O=[N+]([O-])O.[Cu+2].[NH-]CC[NH-].[NH-]CC[NH-]`, the T/C by setting is: (dose: 3.0 mg/kg/injection, schedule: Q01DX009 (ip), vehicle: saline) 116 % of control; (dose: 6.0 mg/kg/injection, schedule: Q01DX009 (ip), vehicle: saline) 122 % of control; (dose: 12.0 mg/kg/injection, schedule: Q01DX009 (ip), vehicle: saline) 102 % of control; (dose: 12.5 mg/kg/injection, schedule: Q01DX009 (ip), vehicle: saline) 87 % of control.

As to `CC(=O)OC1C2(CC3N4C(=O)C5(CO)SSC4(CC31O)C(=O)N5C)OC(C)C(C)(C)C2=O` (stereo not given), the T/C (dose: 0.08 mg/kg/injection, schedule: Q01DX009 (ip), vehicle: saline with Tween-80) is 96 % of control; the T/C (dose: 0.16 mg/kg/injection, schedule: Q01DX009 (ip), vehicle: saline with Tween-80) is 101 % of control; the T/C (dose: 0.3 mg/kg/injection, schedule: Q01DX009 (ip), vehicle: saline with Tween-80) was 88 % of control; the T/C (dose: 0.6 mg/kg/injection, schedule: Q01DX009 (ip), vehicle: saline with Tween-80) is 98 % of control.

With `C=COC(=O)CCCCCCCCCCCCCCCCC`, the T/C was 94 % of control (dose: 20.0 mg/kg/injection, schedule: Q01DX009 (ip), vehicle: Klucel (hydroxypropylcellulose) (HPC)); 94 % of control (dose: 40.0 mg/kg/injection, schedule: Q01DX009 (ip), vehicle: Klucel (hydroxypropylcellulose) (HPC)); 92 % of control (dose: 80.0 mg/kg/injection, schedule: Q01DX009 (ip), vehicle: Klucel (hydroxypropylcellulose) (HPC)).

As for `CC(CO)NC(=O)C1C=C2c3cccc4[nH]cc(c34)CC2N(C)C1` (stereo not given), the T/C by setting is: (dose: 25.0 mg/kg/injection, schedule: Q01DX009 (ip), vehicle: saline) 91 % of control; (dose: 50.0 mg/kg/injection, schedule: Q01DX009 (ip), vehicle: saline) 91 % of control; (dose: 200.0 mg/kg/injection, schedule: Q01DX009 (ip), vehicle: saline) 86 % of control.

Regarding `COc1ccc(C(CC(=O)c2ccc3c(c2)OCO3)C(=O)O)cc1OC` (stereo not given), the T/C was 96 % of control (dose: 100.0 mg/kg/injection, schedule: Q01DX009 (ip), vehicle: Klucel (hydroxypropylcellulose) (HPC)); 100 % of control (dose: 200.0 mg/kg/injection, schedule: Q01DX009 (ip), vehicle: Klucel (hydroxypropylcellulose) (HPC)); 100 % of control (dose: 400.0 mg/kg/injection, schedule: Q01DX009 (ip), vehicle: Klucel (hydroxypropylcellulose) (HPC)).

With `CCCC1OC(/C=C/c2ccccc2)OCC1CC` (stereo not given), the T/C (dose: 100.0 mg/kg/injection, schedule: Q01DX009 (ip), vehicle: saline with Tween-80) is 110 % of control; the T/C (dose: 200.0 mg/kg/injection, schedule: Q01DX009 (ip), vehicle: saline with Tween-80) was 110 % of control; the T/C (dose: 400.0 mg/kg/injection, schedule: Q01DX009 (ip), vehicle: saline with Tween-80) was 98 % of control.

In the case of `O=C(SCC(NSc1ccccc1[N+](=O)[O-])C(=O)O)c1ccccc1` (stereo not given), the T/C is, setting by setting: (dose: 50.0 mg/kg/injection, schedule: Q04DX003 (ip), vehicle: Klucel (hydroxypropylcellulose) (HPC)) 113 % of control; (dose: 100.0 mg/kg/injection, schedule: Q04DX003 (ip), vehicle: Klucel (hydroxypropylcellulose) (HPC)) 100 % of control; (dose: 200.0 mg/kg/injection, schedule: Q04DX003 (ip), vehicle: Klucel (hydroxypropylcellulose) (HPC)) 94 % of control.

With `CNCCNc1ccc(NCCNC)c2c1C(=O)c1ccccc1C2=O`, the T/C (dose: 2.0 mg/kg/injection, schedule: Q01DX009 (ip), vehicle: acid diluted with saline) was 156 % of control; the T/C (dose: 4.0 mg/kg/injection, schedule: Q01DX009 (ip), vehicle: acid diluted with saline) is 230 % of control; the T/C (dose: 8.0 mg/kg/injection, schedule: Q01DX009 (ip), vehicle: acid diluted with saline) was 231 % of control.
